Test results from patent publication US10149476B2, “Pesticidal plant extract containing loline derivatives” (GRASSLANZ TECHNOLOGY LTD, priority 2007, dated 2018).
Values joined by “and” are separate entries in the source; they are usually repeats but may differ in a detail not shown here. Identical values can stand only once.

Tests used:
[1] = Uptake of pyrrolizidine alkaloids into cabbage plants grown in silica sand; format: in vivo, Cabbage brassica; conditions: cabbage treated with composition of Grind Number 3 watered onto pots
Protocol: Cabbage brassica were tested with the pesticidal composition of Grind Number 3 of Example 1 watered onto the pots in which the trial cabbage plants were grown in silica sand.

[2] = Uptake of pyrrolizidine alkaloids into endophyte free Fescue plants after watering composition onto roots; format: in vivo; conditions: leaf sub-sample after 21 days; for Pyrrolizidine Alkaloid Content, Average: average of 5 endophyte free Fescue plants, Grinding Number 1 composition watered on roots; for Pyrrolizidine Alkaloid Content: individual endophyte free Fescue plants 1-5, 100 ml Grinding Number 1 composition watered on roots every second day
Protocol: (§1) Pesticidal composition from Grinding Number 1 of Example 1 was watered onto the roots of endophyte free Fescue and Ryegrass plants grown in a glasshouse under controlled conditions into silica sand filled pots. Control plants were included in the plant samples and were watered with nil endophyte ground extract containing no pesticidal composition. Trial plants were each watered with 100 ml of each composition every second day with nutrient watered on alternate days. After 21 days, a sub-sample of leaf material was analysed to determine the uptake of pesticidal composition into the plants tested.
(§2) The results shown below in Table 2 for endophyte free Fescue plants and Table 3 for endophyte free Ryegrass plants clearly indicate transfer of the measured pyrrolizidine alkaloid compounds from the composition and into the plants via their root system

[3] = Uptake of pyrrolizidine alkaloids into endophyte free Ryegrass plants after watering composition onto roots; format: in vivo; conditions: leaf sub-sample after 21 days; for Pyrrolizidine Alkaloid Content, Average: average of 5 endophyte free Ryegrass plants, Grinding Number 1 composition watered on roots; for Pyrrolizidine Alkaloid Content: individual endophyte free Ryegrass plants 1-5, 100 ml Grinding Number 1 composition watered on roots every second day
Protocol: as §1, §2

SMILES	Pyrrolizidine Alkaloid Content [1]	Pyrrolizidine Alkaloid Content, Average [2]	Pyrrolizidine Alkaloid Content [2]	Pyrrolizidine Alkaloid Content, Average [3]	Pyrrolizidine Alkaloid Content [3]
CN(C=O)C1C2[C@@H]3CCN2C[C@H]1O3 (stereo partly drawn) [NFL, N-formylloline]	148 mg/kg or ppm	479 mg/kg or ppm	405 mg/kg or ppm and 382 mg/kg or ppm and 648 mg/kg or ppm and 479 mg/kg or ppm and 482 mg/kg or ppm	644 mg/kg or ppm	352 mg/kg or ppm and 340 mg/kg or ppm and 1152 mg/kg or ppm and 697 mg/kg or ppm and 680 mg/kg or ppm
CC(=O)N[C@H]1[C@H]2[C@@H]3CCN2C[C@H]1O3 [NANL, N-acetylnorloline]	0 mg/kg or ppm	0 mg/kg or ppm	0 mg/kg or ppm	14 mg/kg or ppm	0 mg/kg or ppm (3×) and 44 mg/kg or ppm and 27 mg/kg or ppm
CC(=O)N(C)[C@@H]1[C@H]2[C@@H]3CCN2C[C@H]1O3 [NAL, N-acetylloline]	6 mg/kg or ppm	75 mg/kg or ppm	56 mg/kg or ppm and 38 mg/kg or ppm and 119 mg/kg or ppm and 69 mg/kg or ppm and 95 mg/kg or ppm	92 mg/kg or ppm	40 mg/kg or ppm and 37 mg/kg or ppm and 214 mg/kg or ppm and 87 mg/kg or ppm and 84 mg/kg or ppm
